Experimental data reported in patent US6933261B2, “2,4,5-Trisubstituted phenylketoenols” (Bayer Aktiengesellschaft, priority 1995, dated 2005).

How the values were obtained:
Type in all cases: in vivo
[1] = tested on: rice green leafhopper (Nephotettix cincticeps); assay: Nephotettix test; conditions: after 6 days, active compound concentration 0.1%, dipped rice seedlings
Procedure: Nephotettix Test • Solvent: 7 parts by weight of dimethylformamide • Emulsifier: 1 part by weight of alkylaryl polyglycol ether To produce a suitable preparation of active compound, 1 part by weight of active compound is mixed with the stated amount of solvent and the stated amount of emulsifier, and the concentrate is diluted with water to the desired concentration. Rice seedlings (Oryza sativa) are treated by being dipped into the preparation of active compound of the desired concentration and are infested with caterpillars of the rice green leafhopper (Nephotettix cincticeps) while the seedlings are still moist. After the specified periods of time, the destruction in % is determined. 100% means that all the caterpillars have been killed; 0% means that none of the caterpillars have been killed.

[2] = tested on: mustard beetle larvae (Phaedon cochleariae); assay: Phaedon larvae test; conditions: after 7 days, active concentration 0.1%, dipped cabbage leaves
Procedure: (§1) Phaedon Larvae Test • Solvent: 7 parts by weight of dimethylformamide • Emulsifier: 1 part by weight of alkylaryl polyglycol ether To produce a suitable preparation of active compound, 1 part by weight of active compound is mixed with the stated amount of solvent and the stated amount of emulsifier, and the concentrate is diluted with water to the desired concentration. Cabbage leaves (Brassica oleracea) are treated by being dipped into the preparation of the active compound of the desired concentration and are infested with mustard beetle larvae (Phaedon cochleariae), as long as the leaves are still moist. After the specified periods of time, the destruction in % is determined. 100% means that all the beetle larvae have been killed; 0% means that none of the beetle larvae have been killed.

[3] = tested on: caterpillars of the diamond-back moth (Plutella maculipennis); assay: Plutella test; conditions: after 7 days, active compound concentration 0.1%, dipped cabbage leaves
Procedure: as §1, with “Plutella Test •” for “Phaedon Larvae Test •”, “preparation of active compound” for “preparation of the active compound”, “infested with caterpillars of the diamond-back moth (Plutella maculipennis) while the leaves” for “infested with mustard beetle larvae (Phaedon cochleariae), as long as the leaves”, “all the caterpillars have been” for “all the beetle larvae have been”, “of the caterpillars have been” for “of the beetle larvae have been”

[4] = tested on: caterpillars of the owlet moth (Spodoptera frugiperda); assay: Spodoptera test; conditions: after 7 days, active compound concentration 0.1%, dipped cabbage leaves
Procedure: as §1, with “Spodoptera Test •” for “Phaedon Larvae Test •”, “preparation of active compound” for “preparation of the active compound”, “infested with caterpillars of the owlet moth (Spodoptera frugiperda) while the leaves” for “infested with mustard beetle larvae (Phaedon cochleariae), as long as the leaves”, “all the caterpillars have been” for “all the beetle larvae have been”, “of the caterpillars have been” for “of the beetle larvae have been”

[5] = tested on: Boophilus microplus resistant/SP-resistant Parkhurst strain, adult satiated females; assay: Test with Boophilus microplus resistant/SP-resistant Parkhurst strain; conditions: 20 μg per animal, injected into the abdomen
Procedure: Test with Boophilus microplus Resistant/SP-resistant Parkhurst Strain
• Test animals: Adult satiated females • Solvent: Dimethyl sulphoxide
20 mg of active compound are dissolved in 1 ml of dimethyl sulphoxide, and lower concentrations are prepared by dilution in the same solvent.
The test is carried out as a 5-fold determination. 1 μl of the solutions is injected into the abdomen and the animals are transferred to dishes and kept in a climatically controlled room. The action is determined via the inhibition of oviposition. 100% means that no tick has laid.

[6] = tested on: peach aphid (Myzus persicae); assay: Myzus test; conditions: after 6 days, active compound concentration 0.1%, dipped cabbage leaves
Procedure: as §1, with “Myzus” for “Phaedon Larvae”, “oleracea) which are heavily infested by the peach aphid (Myzus persicae)” for “oleracea)”, “concentration.” for “concentration and are infested with mustard beetle larvae (Phaedon cochleariae), as long as the leaves are still moist.”, “caterpillars” for “beetle larvae”

Alopecurus myosuroids = assay: Pre-emergence test; conditions: 500 g/ha, rated after three weeks vs untreated control
Procedure: (§2) • Solvent: 5 parts by weight of acetone • Emulsifier: 1 part by weight of alkylaryl polyglycol ether
(§3) To produce a suitable preparation of active compound, 1 part by weight of active compound is mixed with the stated amount of solvent, the stated amount of emulsifier is added and the concentrate is diluted with water to the desired concentration.
(§4) Seeds of the test plants are sown in normal soil and, after 24 hours, watered with the preparation of the active compound. It is expedient to keep constant the amount of water per unit area. The concentration of the active compound in the preparation is of no importance, only the amount of active compound applied per unit area being decisive.
(§5) After three weeks, the degree of damage to the plants is rated in % damage in comparison to the development of the untreated control.
(§6) The figures denote: • 0%=no action (like untreated control) • 100%=total destruction

Avena fatua = assay: Pre-emergence test; conditions: 500 g/ha, rated after three weeks vs untreated control
Procedure: as §2, §3, §4, §5, §6

Setaria viridis = assay: Pre-emergence test; conditions: 500 g/ha, rated after three weeks vs untreated control
Procedure: as §2, §3, §4, §5, §6

Beta vulgaris = assay: Pre-emergence test (crop tolerance); conditions: 500 g/ha
Procedure: as §2, §3, §4, §5, §6

[7] = tested on: All larval stages of Lucilia cuprina (OP-resistant); assay: Test with fly larvae/development-inhibiting action; conditions: active compound concentration 1000 ppm, read-out: action (larvicidal / development-inhibiting)
Procedure: Test with Fly Larvae/Development-Inhibiting Action
• Test animals: All larval stages of Lucilia cuprina (OP-resistant) [pupae and adults (without contact with the active compound)] • Solvent: 35 parts by weight of ethylene glycol monomethyl ether 35 parts by weight of nonylphenol polyglycol ether
To produce a suitable formulation, 3 parts by weight of active compound are mixed with seven parts of the abovementioned solvent/emulsifier mixture and the emulsion concentrate thus obtained is diluted with water to the particular desired concentration.
30 to 50 larvae per concentration are introduced onto horse-meat (1 cm^3), in glass tubes, onto which 500 μl of the dilution to be tested are pipetted. The glass tubes are placed in plastic beakers, the base of which is covered with beach sand, and are stored in a climatically controlled room (26° C.±1.5° C., 70% relative humidity±10%). The action is checked after 24 hours and 48 hours (larvicidal action). After emergence of the larvae (about 72 hours), the glass tubes are removed and perforated plastic lids are placed on the beakers. After 1½ times the development period (hatching of the control flies), the flies which have hatched and the pupae/pupae cases are counted. […]

COC1CCC2(CC1)OC(=O)C(c1cc(C)c(C)cc1C)=C2O (centres unmarked) [Example I-2-a-3]
destruction [1]: 100%

COC1CCC2(CC1)OC(=O)C(c1cc(C)c(C)cc1C)=C2OC(=O)C(C)(C)C (centres unmarked) [Example I-2-b-5]
destruction [1]: 100%

COC1CCC2(CC1)NC(=O)C(c1cc(C)c(C)cc1C)=C2OC(=O)OCC(C)C (single isomer, unassigned) [Example I-1-c-3]
destruction [1]: 100%

CC(=O)Oc1c2c(oc(=O)c1-c1cc(C)c(C)cc1C)C(C)(C)OC2(C)C [Example I-4-b-1]
destruction [2]: 100% | destruction [3]: 100% | destruction [4]: 100% | action (inhibition of oviposition) [5]: 100%

COC1CCC2(CC1)OC(=O)C(c1cc(C)c(C)cc1C)=C2OC(=O)C(C)C (centres unmarked) [Example I-2-b-4]
destruction [1]: 100% | destruction [6]: 100%

COC1CCC2(CC1)NC(=O)C(c1cc(C)c(C)cc1C)=C2OC(=O)C(C)C (single isomer, unassigned) [Example I-1-b-3]
destruction [1]: 100% | destruction [6]: 100%

Cc1cc(C)c(-c2c(O)c(C)c(-c3ccc(F)cc3)oc2=O)cc1C [Example I-4-a-3]
destruction [3]: 100% | destruction [4]: 100% | destruction [1]: 100% | damage (Alopecurus myosuroids): 90% | damage (Avena fatua): 96% | damage (Setaria viridis): 95% | tolerance by crop plant (Beta vulgaris): good tolerance

Cc1cc(C)c(C2=C(O)C3(CCC(C)CC3)OC2=O)cc1C (centres unmarked) [Example I-2-a-2]
destruction [1]: 100%

Cc1cc(C)c(C2=C(O)C3(CCC(C)CC3)NC2=O)cc1C (centres unmarked) [Example I-1-a-1]
destruction [3]: 100% | destruction [4]: 100% | destruction [1]: 100%

Cc1cc(C)c(C2=C(OC(=O)C(C)C)C3(CCC(C)CC3)NC2=O)cc1C (single isomer, unassigned) [Example I-1-b-2]
destruction [3]: 100% | destruction [4]: 100% | destruction [1]: 100% | destruction [6]: 100%

CCOC(=O)OC1=C(c2cc(C)c(C)cc2C)C(=O)NC12CCC(C)CC2 (centres unmarked) [Example I-1-c-1]
destruction [3]: 100% | destruction [1]: 100%

COC1CCC2(CC1)NC(=O)C(c1cc(C)c(C)cc1C)=C2OC(=O)OCC(C)C (single isomer, unassigned) [Example I-1-c-2]
destruction [1]: 100% | destruction [6]: 100%

Cc1cc(C)c(-c2c(O)c3c(oc2=O)C(C)(C)OC3(C)C)cc1C [Example I-4-a-1]
destruction [3]: 100% | destruction [4]: 100% | inhibition at 1000 ppm [7]: 100% | action (inhibition of oviposition) [5]: 100%

Cc1cc(C)c(C2=C(O)C3(CCCCC3)OC2=O)cc1C [Example I-2-a-1]
destruction [6]: 100%

Cc1cc(C)c(-c2c(O)c(C)c(-c3ccccn3)oc2=O)cc1C [Example I-4-a-4]
destruction [2]: 100% | destruction [3]: 100% | destruction [4]: 100% | destruction [1]: 100% | destruction [6]: 100%

CC(=O)OC1=C(c2cc(C)c(C)cc2C)C(=O)NC12CCC(C)CC2 (centres unmarked) [Example I-1-b-1]
destruction [1]: 100%
